Patent US8450479B2, “3-substituted-4-oxo-3,4-dihydro-imidazo[5,1-d][1,2,3,5-tetrazine-8-carboxylic acid amides and their use” (Pharminox Limited, priority 2007, dated 2013)
Values joined by “and” are separate entries in the source; they are usually repeats but may differ in a detail not shown here. Identical values can stand only once. Like-named read-outs stand apart in the source and are kept apart here.

How the values were obtained:
Assay in all cases: MTT assay for 7-day toxicity assay
Type in all cases: cell-based
[1] = system: Colon HCT116 (MMR mutated); conditions: Homo sapiens, HCT-116, 168 h, Colon HCT116 (MMR mutated); 7-day MTT; single determinations; read-out: GI50
Experimental: (§1) The cell culture techniques were carried out in a Class II microbiological safety cabinet which was swabbed with 70% IMS in distilled water before each use. Glioma cells were routinely cultured in Costar tissue culture flasks in RPMI 1640 liquid medium (containing 0.3 g/L L-glutamine and 2 g/L sodium bicarbonate) supplemented with 10% heat inactivated FBS (55-59° C.) for 1 hour to denature complement proteins which would otherwise evoke a cellular immune response resulting in cell lysis, 1% non-essential amino acids, 50 μg/mL gentamicin and 400 μg/mL G418 (vector selected reagent). Colorectal and melanoma cells were maintained in RPMI 1640 supplemented with 10% FBS. MRC-5 cells were cultured in EMEM. Cells were grown in a humidified incubator containing 5% CO2 at 37° C. Cells were sub-cultured when growth exceeded approximately 80% confluence, normally twice weekly. The medium was aspirated from the flask and approximately 0.8 mL trypsin-EDTA 1× solution added. The cells were re-incubated at 37° C. until they visibly detached from the flask. The cell suspension was then re-suspended in 5 mL medium and 0.5-1 mL of the cell suspension was transferred to a new flask (25 cm^2) with 7 mL culture medium. The cells were further incubated at 37° C. incubator. Cells were disposed after passage nearly 30 times in order to minimize phenotypic drift. New batches of cells were taken from liquid nitrogen storage by thawing rapidly (37° C. water bath) and re-suspension in a 25 cm^2 flask with 10 mL of culture medium. Two passages were allowed to resume normal growth. For long-term maintenance, viable cells at 60-80% confluence were detached by minimum amount of trypsin/EDTA and re-suspended in sterile filtered freezing medium (95% FBS, 5% DMSO), transferred to sterile cryogenic vials, and frozen overnight at −20° C. followed by −80° C. for 1-2 days and stored in liquid nitrogen for long term storage.
(§2) Most test compounds, including temozolomide, were prepared as stock solution (100 mM) in DMSO and stored at −20° C. for not more than 6 months.
(§3) This assay was first described in Mosmann, T., 1983, “Rapid colorimetric assay for cellular growth and survival: Application to proliferation and cytotoxicity assays”, Journal of Immunological Methods, Vol. 65, Nos. 1-2, pp. 55-63.
(§4) Glioma cell lines, SNB19 and U373, both MGMT transfected (i.e., SNB19M and U373M) and vector controls (i.e., SNB19V and U373V); colorectal carcinoma cell lines, HCT116, HT29, and DLD1; melanoma cell line, SKMEL-28; breast cell line, MCF-7; and normal human fetal lung fibroblast cell line, MRC-5; were harvested at 60-80% confluence—during the logarithmic phase of growth.
(§5) Following harvesting, cells in suspension were gently syringed through a 23 gauge needle to obtain a near-single cell suspension. The desired cell seeding densities were used and added into 96-well plates in 180 μL culture medium if only one test compound was to be added, or 160 μL if two test compounds were to be added in combination, which were allowed to attach at 37° C. (5% CO2) overnight. For the 7 day assay, the cell seeding density for different cell lines was as follows: SNB19V, SNB19M: 650 cells/well; U373V, U373M: 650 cells/well; SNB19VR, U373VR: 650 cells/well; HCT116, DLD-1, SKMEL-28, MRC-5, MCF-7: 400 cells/well.
(§6) The two peripheral lanes were used as blank wells (cell free) and filled with 200 μL of medium in order to minimise medium evaporation from the plate. A separate time zero (T0) plate was set up alongside other plates. Serial dilutions in tissue culture medium of a 100 mM stock of test compound in DMSO were prepared immediately before each assay to ten times the final concentrations required, and then 20 μL was added to each well (200 μL total media per well) to achieve final concentrations of 0.5 μM, 1 μM, 5 μM, 10 μM, 50 μM, 100 μM, 500 μM, and 1000 μM. A minimum of four wells received the same test compound concentration. […]

[2] = system: Colon HT29 (MMR proficient); conditions: Homo sapiens, HT-29, 168 h, Colon HT29 (MMR proficient); 7-day MTT; single determinations; read-out: GI50
Experimental: as §1, §2, §3, §4, §5, §6

[3] = system: Melanoma SKMEL-28 (MMR proficient); conditions: Homo sapiens, SK-MEL-28, 168 h, Melanoma SKMEL-28 (MMR proficient); 7-day MTT; single determinations; read-out: GI50
Experimental: as §1, §2, §3, §4, §5, §6

[4] = system: Glioma SNB19M (MGMT+); conditions: Glioma SNB19M (MGMT+)
Experimental: as §1, with “Glioma cells were routinely cultured in Costar tissue culture flasks in RPMI 1640 liquid medium (containing 0.3 g/L L-glutamine and 2 g/L sodium bicarbonate) supplemented with 10% heat inactivated FBS (55-59° C.) for 1 hour to denature complement proteins which would otherwise evoke a cellular immune response resulting in cell lysis, 1% non-essential amino acids, 50 μg/mL gentamicin and 400 μg/mL G418 (vector selected reagent). Colorectal and melanoma cells were maintained in RPMI 1640 supplemented with 10% FBS.” left out
as §2, §4, §5
(§7) The two peripheral lanes were used as blank wells (cell free) and filled with 200 μL of medium in order to minimise medium evaporation from the plate. A separate time zero (T0) plate was set up alongside other plates. Serial dilutions in tissue culture medium of a 100 mM stock of test compound in DMSO were prepared immediately before each assay to ten times the final concentrations required, and then 20 μL was added to each well (200 μL total media per well) to achieve final concentrations of 0.5 μM, 1 μM, 5 μM, 10 μM, 50 μM, 100 μM, 500 μM, and 1000 μM. A minimum of four wells received the same test compound concentration. To control wells, including those in the T0 plate, 20 μL of medium was added. […] A separate plate treated in the same way, but free of test compound, was used as a measure of cell viability at the time of drug addition (day 0).
(§8) After incubation at 37° C., 5% CO2 for 7 days (or immediately for the day 0 plate), cell viability was quantified using the MTT assay. 50 μL of sterile filtered MIT (3-(4,5-dimethylthiazol-2-yl)-2,5-diphenyltetrazolium bromide) (2 mg/mL in phosphate buffered saline) were added to each well (final concentration 0.4 mg/mL) and the plates were re-incubated for 4 hours to allow metabolic conversion of MTT by dehydrogenases in viable cells to insoluble formazan crystals.
(§9) The intensity of absorbance is directly proportional to cell viability.

[5] = system: Glioma SNB19V (MGMT−); conditions: Glioma SNB19V (MGMT−)
Experimental: as §1, with “Glioma cells were routinely cultured in Costar tissue culture flasks in RPMI 1640 liquid medium (containing 0.3 g/L L-glutamine and 2 g/L sodium bicarbonate) supplemented with 10% heat inactivated FBS (55-59° C.) for 1 hour to denature complement proteins which would otherwise evoke a cellular immune response resulting in cell lysis, 1% non-essential amino acids, 50 μg/mL gentamicin and 400 μg/mL G418 (vector selected reagent). Colorectal and melanoma cells were maintained in RPMI 1640 supplemented with 10% FBS.” left out
as §2, §4, §5, §7, §8, §9

[6] = system: Glioma U373M (MGMT+); conditions: Glioma U373M (MGMT+)
Experimental: as §1, with “Glioma cells were routinely cultured in Costar tissue culture flasks in RPMI 1640 liquid medium (containing 0.3 g/L L-glutamine and 2 g/L sodium bicarbonate) supplemented with 10% heat inactivated FBS (55-59° C.) for 1 hour to denature complement proteins which would otherwise evoke a cellular immune response resulting in cell lysis, 1% non-essential amino acids, 50 μg/mL gentamicin and 400 μg/mL G418 (vector selected reagent). Colorectal and melanoma cells were maintained in RPMI 1640 supplemented with 10% FBS.” left out
as §2, §4, §5, §7, §8, §9

[7] = system: Glioma U373V (MGMT low); conditions: Glioma U373V (MGMT low)
Experimental: as §1, with “Glioma cells were routinely cultured in Costar tissue culture flasks in RPMI 1640 liquid medium (containing 0.3 g/L L-glutamine and 2 g/L sodium bicarbonate) supplemented with 10% heat inactivated FBS (55-59° C.) for 1 hour to denature complement proteins which would otherwise evoke a cellular immune response resulting in cell lysis, 1% non-essential amino acids, 50 μg/mL gentamicin and 400 μg/mL G418 (vector selected reagent). Colorectal and melanoma cells were maintained in RPMI 1640 supplemented with 10% FBS.” left out
as §2, §4, §5, §7, §8, §9

[8] = 168 h, 7-day MTT, single determinations, read-out: GI50
[9] = 7-day MTT, single determinations, read-out: GI50

SMILES | GI50 [4, 8] [µM] | GI50 [4, 9] [µM] | GI50 [5, 8] [µM] | GI50 [5, 9] [µM] | GI50 [6, 8] [µM] | GI50 [6, 9] [µM] | GI50 [7, 8] [µM] | GI50 [7, 9] [µM] | further results
COc1cc(Cn2nnc3c(C(N)=O)ncn3c2=O)cc(OC)c1OC [AA-002, 4-Oxo-3-(3,4,5-trimethoxybenzyl)-3,4-dihydroimidazo[5,1-d][1,2,3,5]tetrazine-8-carboxamide] | – | – | – | – | – | – | – | – | GI50 [1]: 393 µM; GI50 [2]: 128 µM; GI50 [3]: 293 µM
NC(=O)c1ncn2c(=O)n(CC3CCCC3)nnc12 [GG-002, 3-(Cyclopentyl)methyl-8-carbamoylimidazotetrazin-4-one] | 796 | 602 | 888 | 751 | 642 | 728 | 790 | > 1000 | –
CNC(=O)Cn1nnc2c(C(N)=O)ncn2c1=O [JJ-002, N-Methyl (8-Carbamoyl-oxoimidazo[5,1-d][1,2,3,5]tetrazin-3(4H)-yl)ethanamide] | 258 | 235 | 73.5 | 58.1 | 306 | 221 | 234 | 287 | –
CN(C)C(=O)Cn1nnc2c(C(N)=O)ncn2c1=O [JJ-003, N,N-Dimethyl (8-Carbamoyl-oxoimidazo[5,1-d][1,2,3,5]tetrazin-3(4H)-yl)ethanamide] | 78.6 | 68.1 | 73.6 | 61.8 | 98.6 | 86.4 | 92.4 | 77.8 | –
NC(=O)c1ncn2c(=O)n(CC(=O)N3CCOCC3)nnc12 [JJ-005, N-(8-Carbamoyl-oxoimidazo[5,1-d][1,2,3,5]tetrazin-3(4H)-yl)ethanoyl morpholine] | 119 | 84.9 | 70.3 | 52.4 | 90.4 | 173 | 195 | 291 | –
CSCCn1nnc2c(C(N)=O)ncn2c1=O [KK-002, 3-(2-Methylsulfanyl-ethyl)-4-oxo-3,4-dihydro-imidazo[5,1-d][1,2,3,5]tetrazine-8-carboxylic acid amide] | 304 | 259 | 288 | 321 | 229 | 286 | 152 | 300 | –
NC(=O)c1ncn2c(=O)n(CCC(=O)O)nnc12 [LL-001, 3-(8-Carbamoyl-oxoimidazo[5,1-d][1,2,3,5]tetrazin-3(4H)-yl)propanoic acid] | 397 | 232 | 356 | 355 | 236 | 281 | 234 | 248 | –
CC(=O)OCn1nnc2c(C(N)=O)ncn2c1=O [LL-005] | 46 | 34.7 | 56.6 | 40.1 | 45.6 | 33.3 | 15.7 | 8 | –
CC(C)(C)[Si](C)(C)OCCn1nnc2c(C(N)=O)ncn2c1=O [NN-001, 3-(2-(tert-Butyldimethylsilyloxy)ethyl)-4-oxo-3,4-dihydroimidazo[5,1-d][1,2,3,5]tetrazine-8-carboxamide] | – | – | – | – | – | – | – | – | GI50 [4]: 182 µM and 263 µM; GI50 [5]: 128 µM and 97 µM; GI50 [6]: 98.2 µM and 68.3 µM; GI50 [7]: 172 µM and 229 µM
NC(=O)c1ncn2c(=O)n(CCO)nnc12 [NN-002, 3-(2-Hydroxyethyl)-4-oxo-3,4-dihydroimidazo[5,1-d][1,2,3,5]tetrazine-8-carboxamide] | – | – | – | – | – | – | – | – | GI50 [4]: 396 µM and 437 µM; GI50 [5]: 200 µM and 210 µM; GI50 [6]: 248 µM and 398 µM; GI50 [7]: 209 µM and 368 µM
CC(C)n1nnc2c(C(N)=O)ncn2c1=O [PP-001, 3-Isopropyl-8-carbamoylimidazotetrazin-4-one] | – | – | – | – | – | – | – | – | GI50 ([4]; read-out: GI50): > 1000 µM and 753 µM; GI50 ([5]; read-out: GI50): > 1000 µM; GI50 ([6]; read-out: GI50): 427 µM and 657 µM; GI50 ([7]; read-out: GI50): 387 µM and 580 µM
